Laboratory results published in patent US12478677B2, “Tunable luminescent organic salts for enhanced imaging and photodynamic therapy” (BOARD OF TRUSTEES OF MICHIGAN STATE UNIVERSITY, priority 2017, dated 2025).
Entries after “also recorded” stand apart in the source; their conditions may differ. Where two headings read alike, the source gives them in different places.

Columns and labels:
mitochondrial superoxide = assay: MitoSOX measurement of mitochondrial superoxide; type: cell-based, human; details: A549 cells treated 4 days at phototoxic concentrations; with or without light
Excerpt: FIG. 22. Luminescent organic salts generate mitochondrial ROS. […] MitoSOX is used to measure mitochondrial superoxide, and H2DCFDA for general cytoplasmic ROS in A549 cell treated with organic salts at indicated phototoxic concentrations for 4 days.
Photoactive agents accumulate in the mitochondria of cancer cells and generate reactive oxygen species (ROS) with light exposure, depolarizing the mitochondrial membrane potential to cause cell death. Small molecule protective agents that quench ROS have been used to decrease their phototoxicity. However, the exact type of ROS generated by each luminescent agent remains unclear. Photo-induced ROS include singlet oxygen, superoxide radical anion, hydrogen peroxide, hydroxyl radical and others (see FIG. 21). Superoxide is a highly reactive and biologically toxic species deployed in nature to kill invading organisms. It is often formed as a byproduct of mitochondrial respiration but is typically quenched by the highly efficient superoxide dismutase. Hydroxyl radicals are also highly reactive, damaging nearly all forms of biological molecules. Unlike superoxide radical, the hydroxyl radical cannot be easily quenched naturally via enzymes, and endogenous antioxidants are typically required. Singlet oxygen is the excited state of the common triplet oxygen (O2 ground state) and is highly reactive towards organic compounds. Singlet oxygen can be eliminated in mammalian systems by antioxidants. A range of nitroxy radicals can subsequently stem from superoxide (peroxynitrite) or peroxide (nitrogen dioxide) species. […] Each luminescent cation-anion pair generates specific ROS resonant with its own energy level, and cell types can be targeted by generating the key sensitizing ROS. For example, it is expected that CyFPhB is phototoxic (see FIGS. 11A and 11B and 12A and 12B) by generating reactive oxygen species, which can be resonant with its molecular orbital energy levels (FIG. 21). […] No cytoplasmic ROS is detected using general cytoplasmic ROS probe H2DCFDA. […]

[1] = In vivo imaging, organ and tumor localization in orthotopic breast cancer mouse model; details: 1 mg/kg intraperitoneal, after 72 hours
Experimental: Mice are dosed with 1 mg/kg of organic salt in PBS (phosphate buffered saline) via intraperitoneal injection. Live imaging is performed by anesthetizing the mice with 3% isofluorane and using a Leica M165FC microscope with a PE4000 LED light source, DFC9000GT camera, and LAS X imaging software. For internal imaging, mice are sacrificed once tumors reach a size of 20 mm^3 and organs of interest are retrieved and imaged using the system described previously.

[2] = Salt integrity and aggregation in cell media (mass spectrometry, electron microscopy, UV-Vis); type: physicochemical; details: cell media
Excerpt: FIGS. 7A-7C. […] Organic salts were first dissolved in DMSO and then diluted in water, forming nanoparticles. […] Combinations of H- and J-aggregation of organic salts can be seen by blue-shifted peaks (lower wavelength) and red-shifted peaks (higher wavelength), respectively. The nanoparticles with small hard anions redissolve in cell media likely due to sterics. […] This is achieved by cation-anion pairs of luminescent organic salts that can be modulated to be either non-toxic for enhanced imaging, or phototoxic for improved PDT. […] IR polymethine cyanine dyes, which have been used as effective theranostics are described. […] This is thought to occur through a mechanism mitigated by tumor vascularization, increased retention in cancer cells, and mitochondrial depolarization. Once in the cell, they accumulate in the mitochondria and lysosomes, where irradiation induces generation of cytotoxic oxygen species. A strategy is described for preventing or inhibiting salt dissociation in cells: aggregates are formed via introduction of the salt into an aqueous media by a solvent vehicle, forming particles with diameters of about 5 nm in size with no precipitation observed. […] This is confirmed by high resolution mass spectrometry, electron microscopy, and UV-Vis spectroscopy. […] Normalized absorption data are sown in FIGS. 7A, 7B, and 7C. This is likely due to steric effects, where if the counterion radius is too small it is not able to protect the nanoparticle stability. This can be characterized by the volume-averaged effective spherical radius of the counterions, where the cutoff is at about 0.275 nm.

A549 cells = assay: Viability studies (trypan blue staining and cell counting) with or without IR excitation; type: cell-based, human; details: for IC50: linear regression analysis; for Concentration at which cytotoxic: cells, toxic at low concentration, even without IR light
Experimental: The cell lines human lung carcinoma (A549), metastatic human melanoma (WM1158) and Vemurafenib-resistant melanoma (Sk-Mel-28-Vem^R) are used. Sk-Mel-28-Vem^R is generated by culturing a parental melanoma cell lines in the presence of 2 μM Vemurafenib for 2 months. Acquired Vemurafenib resistance is defined by >1 log change in IC50 between nonresistant and resistant cell lines. Resistance is maintained through media supplementation with 2 μM Vemurafenib, which is changed every 48 hours. All cells are cultured in DMEM without pyruvate with 10% heat inactivated fetal bovine serum supplemented with glutamine and penicillin/streptomycin, and incubated in 37° C. with 5% CO2.
A549 and WM1158 cells are seeded at a density of 50,000 cells per well in 6-well tissue culture plates. After 24 hours of incubation, media is aspirated and replaced with media containing luminescent dyes at indicated concentrations. Each well is irradiated with an 850 nm LED lamp with an illumination rate of 526 mW/cm^2 for an hour in the incubator, and control cells are left in a dark incubator without irradiation. For studies with Cy7, a 740 nm LED lamp is used instead of an 850 nm, but with a similar illumination flux. Immediately after irradiation, the media is replenished with fresh dye-laced media and allowed to incubate for another 24 hours. […] Viable cell number is determined at 24 and 96 hours using trypan blue staining and a Nexcelom Cellometer Auto T4 cell counter. All assays are done with 3 biological replicates. The fold change in cell proliferation over days of treatment was calculated using the following equation.

What does the source list for `CCN1C(=CC=C2CCCC(C=CC3=[N+](CC)c4ccc5ccccc5c4C3(C)C)=C2Cl)C(C)(C)c2c1ccc1ccccc21.F[P-](F)(F)(F)(F)F` [CyPF6]?
Mitochondrial superoxide / ROS generation (MitoSOX), in words (mitochondrial superoxide): catalyzing superoxide with or without light; Localization in tumor versus other organs [1]: concentration of the organic salt to the tumor; Aggregation / nanoparticle behaviour in cell media, in words [2]: lack of aggregation observed in cell media; IC50 (A549 cells; A549 cells, 850 nm irradiation, read-out: IC50 850 nm): 890 nM; IC50 (A549 cells; A549 cells, dark, no irradiation, read-out: IC50 Dark): 1600 nM; Toxicity in words, dark and light (A549 cells; A549 cells, with or without IR (850 nm) excitation): toxic both in the dark and under IR (850 nm) illumination; also recorded: cytotoxic; Toxicity in the dark, in words (A549 cells; A549 cells, without IR excitation): cytotoxic; Concentration at which cytotoxic (A549 cells): < 2.5 µM; Concentration at which cytotoxic (A549 cells; listed as Cy+ paired with PF6^−): 1.6 µM
